Experimental findings from patent US9051387B2, “Inhibition of MyBP-C binding to myosin as a treatment for heart failure” (Wisconsin Alumni Research Foundation, priority 2012, dated 2015) are described below.

“Also recorded” adds a separate entry of the source.

In test [1] the test system is porcine skinned myocardium. Nature of the test: Force-pCa relationship (Ca2+ sensitivity of force) in skinned myocardium. The class given is cell-based, pig. As to the method:
Skinned myocardial preparations were attached between a force transducer (for measurements of force) and a displacement motor (to impose rapid changes in length for measurements of the kinetics of force development) while in relaxing solution (Olsson et al., 2004). The temperature was then adjusted to 22° C. for measurements of the contractile properties of myocardium in the presence and absence of peptide.
The force generating properties of murine or porcine skinned myocardium were measured as a function of free [Ca^2+] in activating solutions containing salts, a Ca^2+ buffer, and MgATP (Olsson et al., 2004). Free Ca^2+, expressed as −log [Ca^2+]free, was varied between sub-threshold (pCa 7.0) and saturating (pCa 4.5) levels with respect to force development. Measurements of isometric force as a function of pCa yielded force-pCa relationships, from which was determined the Ca^2+ sensitivity of force defined as the pCa at which force was half-maximal.
The force and kinetic data presented in the following section were obtained from each muscle preparation first during maximal activation at pCa 4.5, next during submaximal activation at a pCa>4.5, and once again during activation at pCa 4.5. The preparation was then bathed in relaxing solution containing peptide, after which the identical activation sequence was imposed. Finally, the peptide was washed out of the preparation by repeated washings in relaxing solution so that control measurements could again be done in the absence of peptide. This bracketing protocol ensured that the results in the presence of peptide were corrected for time-dependent rundown of the preparations during the experiment.
Measurements of Ca^2+ sensitivity of force were also performed using skinned myocardium from pig hearts, since these hearts are more similar to human hearts with respect to protein isoform expression than are mouse hearts. Specifically, the principal myosin isoform in porcine and human hearts is the much slower β-cardiac myosin, while the principal isoform in mouse hearts is the faster α-cardiac myosin. […] The slower β-cardiac isoform would be predicted to have a greater activating effect on the cardiac thin filament due to the longer residency time of the slower myosin on the thin filament.

The subject of test [2] is mouse skinned myocardium. Nature of the test: Relative effects of peptides on force at submaximal pCa (scaled to force at pCa 4.5). The class given is cell-based. The conditions noted are these: FIG. 7, mouse, 50 μM, intermediate pCa; untreated force ~35% of maximum. As to the method:
(§1) Skinned ventricular myocardium was prepared according to the protocol described by Chen et al. (2010). In brief, beating hearts were excised in vivo from anesthetized WT mice of either sex (˜6 months old) and dissected in Ca^2+-Ringer's solution containing 120 mM NaCl, 19 mM NaHCO3, 5 mM KCl, 1.2 mM Na2HPO4, 1.2 mM MgSO4, 1 mM CaCl2, and 10 mM glucose, pH 7.4 at 22° C., pre-equilibrated with 95% O2/5% CO2. Basal levels of RLC phosphorylation were reduced to uniformly low levels (i.e., <10%) as described previously (Olsson et al., 2004; Stelzer et al., 2006) by perfusing hemisected hearts with Ca^2+-Ringer's solution containing 30 mM 2,3-butanedione monoxime (BDM) for 30 minutes at 22° C. before rapid freezing in liquid nitrogen for storage prior to experimental measurements. […]
(§2) The force generating properties of murine or porcine skinned myocardium were measured as a function of free [Ca^2+] in activating solutions containing salts, a Ca^2+ buffer, and MgATP (Olsson et al., 2004). Free Ca^2+, expressed as −log [Ca^2+]free, was varied between sub-threshold (pCa 7.0) and saturating (pCa 4.5) levels with respect to force development. Measurements of isometric force as a function of pCa yielded force-pCa relationships, from which was determined the Ca^2+ sensitivity of force defined as the pCa at which force was half-maximal. […]

Test [3] relates to murine skinned myocardium. Nature of the test: Kinetics of force development (rate constant of force redevelopment, ktr). Format: cell-based, mouse. The conditions noted are these: 50 μM peptide, each pCa studied. How it is done:
as §1, with “measurements. The dephosphorylation of RLC provides an appropriate background for assessment of the effects of the peptide, since RLC phosphorylation increases force production in heart muscle and speeds contraction and RLC phosphorylation is nearly nil in heart failure.” for “measurements.”
The kinetics of force development were assessed as a function of pCa by measuring the rate of force redevelopment at each pCa following a rapid slackening and re-stretch of the muscle during steady Ca^2+ activation (Olsson et al., 2004; Stelzer et al., 2006). […]

In test [4] the test system is mouse skinned myocardium. Nature of the test: Force-pCa relationship (Ca2+ sensitivity of force) in skinned myocardium. The class given is cell-based. As to the method:
Skinned ventricular myocardium was prepared according to the protocol described by Chen et al. (2010). In brief, beating hearts were excised in vivo from anesthetized WT mice of either sex (˜6 months old) and dissected in Ca^2+-Ringer's solution containing 120 mM NaCl, 19 mM NaHCO3, 5 mM KCl, 1.2 mM Na2HPO4, 1.2 mM MgSO4, 1 mM CaCl2, and 10 mM glucose, pH 7.4 at 22° C., pre-equilibrated with 95% O2/5% CO2. Basal levels of RLC phosphorylation were reduced to uniformly low levels (i.e., <10%) as described previously (Olsson et al., 2004; Stelzer et al., 2006) by perfusing hemisected hearts with Ca^2+-Ringer's solution containing 30 mM 2,3-butanedione monoxime (BDM) for 30 minutes at 22° C. before rapid freezing in liquid nitrogen for storage prior to experimental measurements. The dephosphorylation of RLC provides an appropriate background for assessment of the effects of the peptide, since RLC phosphorylation increases force production in heart muscle and speeds contraction and RLC phosphorylation is nearly nil in heart failure.
On the day of an experiment, frozen ventricles were thawed and homogenized in ice-cold relaxing solution containing 100 mM KCl, 10 mM imidazole, 5 mM MgCl2, 2 mM EGTA, and 4 mMATP, pH 7.0 at 22° C. to yield multicellular preparations with dimensions of 600-900 μm×100-250 μm using a Polytron homogenizer. The cellular homogenates were then centrifuged and subsequently resuspended in ice-cold relaxing solution containing 250 μg/ml saponin and 1% Triton X-100 for 30 minutes at 4° C. […]
as §2

For “FSSLLKKRDAFRRDAKLE (SEQ ID NO:47) [302A, 18-mer from cMyBP-C region 293-310 with S→A substitutions at positions 302 and 307]”, the “increase in Ca2+ sensitivity of force” value in test [1] (porcine myocardium, 50 μM peptide, versus control) worked out at 0.32 pCa units; with mouse skinned myocardium [4] (mouse myocardium, 50 μM peptide, versus control), 0.15 pCa units. Besides, the “pCa50 following treatment with peptide” value in test [1] (porcine myocardium, 50 μM peptide, control 5.60) turned out to be 5.92; in the test on mouse skinned myocardium [4] (mouse myocardium, 50 μM peptide, control 5.70±0.02), 5.85±0.02. In addition, the “effect of washout of the peptide” value in test [1] (porcine myocardium, after 50 μM peptide) is “reversed the effect”. In test [1] (skinned myocardium, FIG. 3), the “effects on force development, porcine versus murine” value is listed as “significantly greater in porcine than in murine skinned myocardium”. Also, the “force at pCa 5.9 (scaled to force at pCa 4.5), fold of control” value with mouse skinned myocardium [2] is recorded as roughly 2 × control. In addition, the “effect on rate constant of force development (ktr)” value in test [3] is given as “accelerated the rate of force development at each pCa studied; also recorded: increased at each pCa studied”. The “effect on force-pCa relationship” value with mouse skinned myocardium [4] (mouse skinned myocardium, peptide 50 μM) was “shift of the force-pCa relationship to lower Ca^2+ concentrations; also recorded: shifted to lower Ca^2+ concentrations”.
